From ChEMBL document CHEMBL3400026, “Synthesis of novel 24-amino-25,26,27-trinorlanost-8-enes: cytotoxic and apoptotic potential in U937 cells” (Bioorg Med Chem, 2015)
Activity calls are given as the source filed them. No cut-off for these calls is given here.

Assays:
U-937 [1] = assay: Induction of apoptosis in human U937 cells assessed as condensed/fragmented nuclei at 5 ug/ml after 24 hrs using Hoechst 33342 staining by microscopy relative to solvent control; format: functional
U-937 [2] = assay: Induction of apoptosis in human U937 cells assessed as condensed/fragmented nuclei at 10 ug/ml after 24 hrs using Hoechst 33342 staining by microscopy relative to solvent control; format: functional
U-937 [3] = assay: Induction of apoptosis in human U937 cells assessed as DNA fragmentation measured as DNA laddering at 5 ug/ml after 24 hrs by agarose gel electophoresis relative to solvent control; format: functional, cell-based
U-937 [4] = assay: Induction of apoptosis in human U937 cells assessed as caspase 3/7 level at 10 ug/ml after 24 hrs by Caspase-Glo 3/7 assay relative to solvent control; format: functional
[5] = Cytotoxicity against human U937 cells after 24 hrs by MTT assay; format: functional, cell-based; conditions: U-937, 24 h
U-937 [6] = assay: Induction of apoptosis in human U937 cells assessed as caspase 3/7 level at 5 ug/ml after 24 hrs by Caspase-Glo 3/7 assay relative to solvent control; format: functional
U-937 [7] = assay: Induction of apoptosis in human U937 cells assessed as caspase 3/7 level at 25 ug/ml after 24 hrs by Caspase-Glo 3/7 assay relative to solvent control; format: functional
U-937 [8] = assay: Induction of apoptosis in human U937 cells assessed as DNA fragmentation measured as DNA laddering at 10 ug/ml after 24 hrs by agarose gel electophoresis relative to solvent control; format: functional, cell-based
U-937 [9] = assay: Induction of apoptosis in human U937 cells assessed as condensed/fragmented nuclei at 25 ug/ml after 24 hrs using Hoechst 33342 staining by microscopy relative to solvent control; format: functional
U-937 [10] = assay: Induction of apoptosis in human U937 cells assessed as condensed/fragmented nuclei at 12 ug/ml after 24 hrs using Hoechst 33342 staining by microscopy relative to solvent control; format: functional
U-937 [11] = assay: Induction of apoptosis in human U937 cells assessed as DNA fragmentation measured as DNA laddering at 12 ug/ml after 24 hrs by agarose gel electophoresis relative to solvent control; format: functional, cell-based
U-937 [12] = assay: Induction of apoptosis in human U937 cells assessed as caspase 3/7 level at 12 ug/ml after 24 hrs by Caspase-Glo 3/7 assay relative to solvent control; format: functional
U-937 [13] = assay: Induction of apoptosis in human U937 cells assessed as condensed/fragmented nuclei at 50 ug/ml after 24 hrs using Hoechst 33342 staining by microscopy relative to solvent control; format: functional
U-937 [14] = assay: Induction of apoptosis in human U937 cells assessed as DNA fragmentation measured as DNA laddering at 25 ug/ml after 24 hrs by agarose gel electophoresis relative to solvent control; format: functional, cell-based
U-937 [15] = assay: Induction of apoptosis in human U937 cells assessed as caspase 3/7 level at 50 ug/ml after 24 hrs by Caspase-Glo 3/7 assay relative to solvent control; format: functional

Row | Structure (SMILES) | Activity (U-937 [1]) [%] | Activity (U-937 [2]) [%] | Activity (U-937 [4]) [%] | IC50 [5] [µM] | Activity (U-937 [6]) [%] | other results
1 | COc1cc([C@@H]2c3cc4c(cc3[C@@H](O[C@@H]3O[C@@H]5CO[C@@H](C)O[C@H]5[C@H](O)[C@H]3O)[C@H]3COC(=O)[C@H]23)OCO4)cc(OC)c1O [ETOPOSIDE] | 23.7 | 24.8 | 5.9 | 1.5 | 6.4 | Activity (U-937 [3]): Active
2 | CCN(CC)CCC[C@@H](C)[C@H]1CC[C@@]2(C)C3=C(CC[C@]12C)[C@@]1(C)CC[C@H](OC(C)=O)C(C)(C)[C@@H]1CC3 | – | 6.9 | 4.9 | 16.4 | – | Activity (U-937 [7]): 7.3%; Activity (U-937 [8]): Active; Activity (U-937 [9]): 6.6%
3 | CC(=O)O[C@H]1CC[C@]2(C)C3=C(CC[C@H]2C1(C)C)[C@]1(C)CC[C@H]([C@H](C)CCCN2CCN(CCO)CC2)[C@@]1(C)CC3 | 7.3 | 10.2 | 7.8 | 9.3 | 6.6 | Activity (U-937 [8]): Active
4 | C[C@H](CCCN1CCOCC1)[C@H]1CC[C@@]2(C)C3=C(CC[C@]12C)[C@@]1(C)CC[C@H](O)C(C)(C)[C@@H]1CC3 | – | – | – | 128 | – | –
5 | C[C@H](CCCN1CCCCC1)[C@H]1CC[C@@]2(C)C3=C(CC[C@]12C)[C@@]1(C)CC[C@H](O)C(C)(C)[C@@H]1CC3 | 7.4 | 5.5 | 2.1 | 1.9 | 2 | Activity (U-937 [3]): Active
6 | CC(=O)O[C@H]1CC[C@]2(C)C3=C(CC[C@H]2C1(C)C)[C@]1(C)CC[C@H]([C@H](C)CCCN2CCOCC2)[C@@]1(C)CC3 | – | – | – | 148 | – | –
7 | C[C@H](CCCNc1ccccc1)[C@H]1CC[C@@]2(C)C3=C(CC[C@]12C)[C@@]1(C)CC[C@H](O)C(C)(C)[C@@H]1CC3 | – | – | – | 132 | – | –
8 | CC(C)CCC[C@@H](C)[C@H]1CC[C@H]2[C@@H]3C(=O)C=C4C[C@@H](O)CC[C@]4(C)[C@H]3CC[C@]12C [7-OXOCHOLESTEROL] | – | – | – | – | – | Activity (U-937 [10]): 7.3%; Activity (U-937 [11]): Active; Activity (U-937 [12]): 2.2%
9 | C[C@H](CCCN1CCN(CCO)CC1)[C@H]1CC[C@@]2(C)C3=C(CC[C@]12C)[C@@]1(C)CC[C@H](O)C(C)(C)[C@@H]1CC3 | 7.6 | 6.6 | 1.3 | 2.7 | 1.2 | –
10 | CCN(CC)CCC[C@@H](C)[C@H]1CC[C@@]2(C)C3=C(CC[C@]12C)[C@@]1(C)CC[C@H](O)C(C)(C)[C@@H]1CC3 | 3.7 | 3 | 2.4 | 3.5 | 2.3 | Activity (U-937 [3]): Active
11 | CC[N+]([O-])(CC)CCC[C@@H](C)[C@H]1CC[C@@]2(C)C3=C(CC[C@]12C)[C@@]1(C)CC[C@H](OC(C)=O)C(C)(C)[C@@H]1CC3 | – | – | – | 21.1 | – | Activity (U-937 [13]): 5%; Activity (U-937 [14]): Active; Activity (U-937 [7]): 4.4%; Activity (U-937 [15]): 4.3%; Activity (U-937 [9]): 7%
12 | CC(=O)O[C@H]1CC[C@]2(C)C3=C(CC[C@H]2C1(C)C)[C@]1(C)CC[C@H]([C@H](C)CCCN2CCCCC2)[C@@]1(C)CC3 | – | – | – | 14.9 | – | Activity (U-937 [13]): 10.6%; Activity (U-937 [14]): Active; Activity (U-937 [7]): 1.9%; Activity (U-937 [15]): 3.4%; Activity (U-937 [9]): 8.8%
13 | CC(=O)O[C@H]1CC[C@]2(C)C3=C(CC[C@H]2C1(C)C)[C@]1(C)CC[C@H]([C@H](C)CCCNc2ccccc2)[C@@]1(C)CC3 | – | – | – | 367 | – | –
